Experimental findings from patent US12655106B2 (Eikonizo Therapeutics, Inc., priority 2021, dated 2026) are described below.

The target of test [1] is T1, Full length Human HDAC6 (Homo sapiens, UniProt Q9UBN7).
T1 construct: Full length Human HDAC6; FLAG (C); host or cells: baculovirus expression system
T1 sequence (Q9UBN7 1-1215): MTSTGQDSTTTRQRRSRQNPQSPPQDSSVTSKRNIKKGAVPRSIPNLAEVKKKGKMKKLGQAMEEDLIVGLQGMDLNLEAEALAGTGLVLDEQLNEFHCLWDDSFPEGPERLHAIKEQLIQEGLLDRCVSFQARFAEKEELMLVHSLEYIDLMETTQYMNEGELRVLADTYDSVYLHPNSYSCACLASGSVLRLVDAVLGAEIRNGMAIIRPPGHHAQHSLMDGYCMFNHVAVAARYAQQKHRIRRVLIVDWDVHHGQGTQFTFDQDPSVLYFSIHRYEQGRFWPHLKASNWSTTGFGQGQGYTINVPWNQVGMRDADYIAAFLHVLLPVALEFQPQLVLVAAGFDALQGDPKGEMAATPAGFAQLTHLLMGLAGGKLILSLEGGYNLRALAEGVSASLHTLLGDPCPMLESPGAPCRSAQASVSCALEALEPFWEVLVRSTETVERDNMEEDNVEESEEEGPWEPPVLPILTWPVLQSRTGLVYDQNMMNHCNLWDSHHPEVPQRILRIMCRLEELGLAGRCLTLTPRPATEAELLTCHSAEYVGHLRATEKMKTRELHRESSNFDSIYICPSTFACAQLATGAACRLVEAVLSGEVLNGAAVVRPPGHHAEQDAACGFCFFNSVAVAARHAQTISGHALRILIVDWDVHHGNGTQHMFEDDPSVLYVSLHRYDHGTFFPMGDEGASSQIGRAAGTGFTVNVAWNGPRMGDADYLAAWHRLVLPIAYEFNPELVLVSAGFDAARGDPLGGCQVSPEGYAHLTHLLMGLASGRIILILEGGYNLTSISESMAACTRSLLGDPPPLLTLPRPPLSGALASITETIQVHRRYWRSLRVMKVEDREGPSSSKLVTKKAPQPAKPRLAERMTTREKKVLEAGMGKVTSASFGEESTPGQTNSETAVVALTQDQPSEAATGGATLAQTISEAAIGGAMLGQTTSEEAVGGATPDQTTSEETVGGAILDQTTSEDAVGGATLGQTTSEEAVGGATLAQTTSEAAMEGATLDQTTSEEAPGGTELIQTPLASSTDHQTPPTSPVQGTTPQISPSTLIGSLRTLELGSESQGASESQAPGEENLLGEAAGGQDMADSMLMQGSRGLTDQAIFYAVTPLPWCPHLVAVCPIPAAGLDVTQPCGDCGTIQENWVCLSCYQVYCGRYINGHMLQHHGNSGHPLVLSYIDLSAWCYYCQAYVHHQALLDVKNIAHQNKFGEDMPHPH
The test can be described thus: Caliper endpoint assay for HDAC enzymatic activity (HDAC6). The test is classed as biochemical. The note with it: for IC50: in vitro enzymatic, Caliper endpoint assay, 30 min pre-incubation, 1 μM substrate peptide; for Selectivity (6 v 8): ratio of HDAC8 IC50/HDAC6 IC50.

Test [2] has as its target T2, Full length Human HDAC8 (Homo sapiens, UniProt Q9BY41).
T2 construct: Full length Human HDAC8; HIS (N); host or cells: baculovirus expression system
T2 sequence (Q9BY41 1-377): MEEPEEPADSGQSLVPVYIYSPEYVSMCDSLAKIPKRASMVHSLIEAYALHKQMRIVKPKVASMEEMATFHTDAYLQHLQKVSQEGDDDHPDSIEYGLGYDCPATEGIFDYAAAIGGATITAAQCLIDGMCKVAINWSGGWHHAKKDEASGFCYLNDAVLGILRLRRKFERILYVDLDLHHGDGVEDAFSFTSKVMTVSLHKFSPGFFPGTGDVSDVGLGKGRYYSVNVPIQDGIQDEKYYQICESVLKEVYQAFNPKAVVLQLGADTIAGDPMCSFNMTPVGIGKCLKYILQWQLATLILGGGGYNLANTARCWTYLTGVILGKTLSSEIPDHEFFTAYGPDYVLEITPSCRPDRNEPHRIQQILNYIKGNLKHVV
The test can be described thus: Caliper endpoint assay for HDAC enzymatic activity (HDAC8). The note with it: in vitro enzymatic, 30 min pre-incubation, 1 μM substrate peptide. The test is classed as biochemical.

For orientation: IC50 means the concentration that gives 50% inhibition. High values mean weaker potency in that assay, low ones greater potency in that assay. As to `CN1CC[C@@H](N2CCc3cc(C(=O)NO)cc(F)c3C2)CC12CCC2` (single isomer, unassigned) [Compound 438], in test [1], the IC50 lay in the range of 0.001 to 0.1 µM and the “Selectivity (6 v 8)” value is “IV (IV: >100-1000)”. For the same molecule, the IC50 in test [2] was 1 to 10 µM.

Turning to `CC1(C)C[C@@H]2Cc3cc(C(=O)NO)cc(F)c3CN2C1` [Compound 126], in test [1], the IC50 is 0.1 to 1 µM and the “Selectivity (6 v 8)” value is “III (III: >10-100)”. Besides, in test [2], the IC50 is 1 to 10 µM.

As for `C[C@@H]1CC[C@H]2c3c(F)cc(C(=O)NO)cc3CCN12` (single isomer, unassigned) [Compound 158], the IC50 in test [1] is 0.001 to 0.1 µM; in test [2] it was 1 to 10 µM.

With `CC[C@H]1Cc2c(F)cc(C(=O)NO)cc2CN1CC12CC3CC(CC(C3)O1)C2` (single isomer, unassigned) [Compound 510], the IC50 in test [1] fell in the range of 0.001 to 0.1 µM; in test [2] it was 1 to 10 µM. The “Selectivity (6 v 8)” value in test [1] was “IV (IV: >100-1000)”.

With `O=C(NO)c1cc(F)c2c(c1)CCN(CC13CC4CC(CC(C4)N1)C3)C2` [Compound 176], in test [1], the IC50 is 0.001 to 0.1 µM and the “Selectivity (6 v 8)” value was “V (V: >1000)”. In test [2], the IC50 fell in the range of 10 to 100 µM.

`CC[C@H]1Cc2c(F)cc(C(=O)NO)cc2CN1C1COC1` (single isomer, unassigned) [Compound 601]: in test [1], the IC50 lay within 0.001 to 0.1 µM and the “Selectivity (6 v 8)” value is listed as “IV (IV: >100-1000)”. In test [2], this molecule showed an IC50 of 10 to 100 µM.

Consider `CC[C@@H]1Cc2c(F)cc(C(=O)NO)cc2CN1CC1CC2CCC(C1)N2C` (single isomer, unassigned) [Compound 571], for which the IC50 in test [1] fell in the range of 0.1 to 1 µM; in test [2], 1 to 10 µM. Also, in test [1], the “Selectivity (6 v 8)” value was “III (III: >10-100)”.

On to `O=C(NO)c1cc(F)c2c(c1)CCN(C1CC3(CCOC3)C1)C2` (single isomer, unassigned) [Compound 188, 8-fluoro-N-hydroxy-2-(6-oxaspiro[3.4]octan-2-yl)-1,2,3,4-tetrahydroisoquinoline-6-carboxamide], for which the IC50 in test [1] lay within 0.001 to 0.1 µM; in test [2], 10 to 100 µM. The “Selectivity (6 v 8)” value in test [1] was “IV (IV: >100-1000)”.

In the case of `O=C(NO)c1cc(F)c2c(c1)CCN(C1CC3(CCN(C4CC4)CC3)C1)C2` [Compound 607, 2-(7-cyclopropyl-7-azaspiro[3.5]nonan-2-yl)-8-fluoro-3,4-dihydro-1H-isoquinoline-6-carbohydroxamic acid], the IC50 in test [1] is 0.001 to 0.1 µM; in test [2] it was 10 to 100 µM. Moreover, the “Selectivity (6 v 8)” value in test [1] was “IV (IV: >100-1000)”.

As for `CC[C@@H]1Cc2c(F)cc(C(=O)NO)cc2CN1C1CC2(CCN(C(C)=O)CC2)C1` (single isomer, unassigned) [Compound 602], in test [1], the IC50 lay within 0.1 to 1 µM and the “Selectivity (6 v 8)” value was “III (III: >10-100)”. This molecule gave an IC50 in test [2] of 10 to 100 µM.

For `O=C(NO)c1cc(F)c2c(c1)CCN([C@H]1CC[C@]13CCOC3)C2` (single isomer, unassigned) [Compound 316], in test [1], the IC50 lay in the range of 0.001 to 0.1 µM and the “Selectivity (6 v 8)” value is “V (V: >1000)”. The IC50 in test [2] is 10 to 100 µM.

For `CC[C@@H]1Cc2c(F)cc(C(=O)NO)cc2CN1CC1CCCCC1` (single isomer, unassigned) [Compound 517], in test [1], the IC50 fell in the range of 0.001 to 0.1 µM and the “Selectivity (6 v 8)” value is listed as “III (III: >10-100)”. In addition, the IC50 in test [2] lay within 1 to 10 µM.

`CC[C@H]1Cc2c(F)cc(C(=O)NO)cc2CN1C1CCC1` (single isomer, unassigned) [Compound 597]: in test [1], the IC50 was 0.1 to 1 µM and the “Selectivity (6 v 8)” value is on record as “IV (IV: >100-1000)”. Besides, the IC50 in test [2] lay in the range of 10 to 100 µM.

Take `O=C(NO)c1ccc2c(c1)CCN1CCCC[C@@H]21` [Compound 89]: in test [1], the IC50 lay in the range of 1 to 10 µM and the “Selectivity (6 v 8)” value was “II (II: >1-10)”. The IC50 in test [2] was in the range of 1 to 10 µM.

As to `O=C(NO)c1cc(F)c2c(c1)C[C@H]1COCCN1C2` (single isomer, unassigned) [Compound 130], the IC50 in test [1] was 10 to 100 µM; in test [2], more than 100 µM.

As to `CC[C@H]1Cc2c(F)cc(C(=O)NO)cc2CN1CC1C2CC1CN(C)C2` (single isomer, unassigned) [Compound 531], in test [1], the IC50 lay within 0.001 to 0.1 µM and the “Selectivity (6 v 8)” value is “V (V: >1000)”. The IC50 in test [2] was more than 100 µM.

`CN1CC2(CCC(N3CCc4cc(C(=O)NO)cc(F)c4C3)CC2)C1` [Compound 427, 8-fluoro-2-(2-methyl-2-azaspiro[3.5]nonan-7-yl)-3,4-dihydro-1H-isoquinoline-6-carbohydroxamic acid]: the IC50 in test [1] was 0.001 to 0.1 µM; in test [2], 10 to 100 µM. In addition, the “Selectivity (6 v 8)” value in test [1] is on record as “V (V: >1000)”.

As to `CC[C@H]1Cc2c(F)cc(C(=O)NO)cc2CN1C1CC2(CCN(C(C)=O)CC2)C1` (single isomer, unassigned) [Compound 603], the IC50 in test [1] fell in the range of 0.1 to 1 µM; in test [2] it was 10 to 100 µM. Besides, the “Selectivity (6 v 8)” value in test [1] is reported as “IV (IV: >100-1000)”.

On to `CN1CCC[C@@]2(CC[C@H]2N2CCc3cc(C(=O)NO)cc(F)c3C2)C1` (single isomer, unassigned) [Compound 362], for which, in test [1], the IC50 lay within 0.1 to 1 µM and the “Selectivity (6 v 8)” value was “III (III: >10-100)”. Moreover, in test [2], the IC50 is 10 to 100 µM.

On to `CC[C@@H]1Cc2c(F)cc(C(=O)NO)cc2CN1C[C@@]12C[C@@H](CO1)N(C)C2` (single isomer, unassigned) [Compound 555], for which, in test [1], the IC50 is more than 100 µM and the “Selectivity (6 v 8)” value is recorded as “V (V: >1000)”. In test [2], the IC50 is more than 100 µM.

For `CC(C)N1CC2(CCCCC2)CC[C@H]1Cc1cc(F)cc(C(=O)NO)c1` (single isomer, unassigned) [Compound 274], in test [1], the IC50 fell in the range of 10 to 100 µM and the “Selectivity (6 v 8)” value was “I (I: 0.1-1)”. The molecule further yielded an IC50 in test [2] of 1 to 10 µM.

Consider `O=C(NO)c1cc(F)c2c(c1)CCN(CC1CCC3(CC1)CN(C1CC1)C3)C2` [Compound 466, 2-[(2-cyclopropyl-2-azaspiro[3.5]nonan-7-yl)methyl]-8-fluoro-3,4-dihydro-1H-isoquinoline-6-carbohydroxamic acid], for which, in test [1], the IC50 lay in the range of 0.001 to 0.1 µM and the “Selectivity (6 v 8)” value is “V (V: >1000)”. Besides, in test [2], the IC50 fell in the range of 10 to 100 µM.

As to `CC[C@@H]1Cc2c(F)cc(C(=O)NO)cc2CN1C1COC1` (single isomer, unassigned) [Compound 600], the IC50 in test [1] fell in the range of 0.001 to 0.1 µM; in test [2] it was 1 to 10 µM. For the same molecule, the “Selectivity (6 v 8)” value in test [1] was “IV (IV: >100-1000)”.

In the case of `CC[C@@H]1Cc2c(F)cc(C(=O)NO)cc2CN1CC12CC(C1)N(C)C2` (single isomer, unassigned) [Compound 534], in test [1], the IC50 lay within 0.1 to 1 µM and the “Selectivity (6 v 8)” value is “IV (IV: >100-1000)”. The IC50 in test [2] lay within 10 to 100 µM.

Regarding `C[C@@H]1C[C@H]2c3c(F)cc(C(=O)NO)cc3CCN2C1` (single isomer, unassigned) [Compound 152], the values for the IC50 in test [1] and in test [2] were 0.001 to 0.1 µM and 1 to 10 µM, respectively.

In the case of `O=C(NO)c1cc(F)c2c(c1)CCN([C@H]1CCN(C3CC3)C3(CCC3)C1)C2` (single isomer, unassigned) [Compound 439], the IC50 in test [1] is 0.001 to 0.1 µM; in test [2] it was 10 to 100 µM. Further, the “Selectivity (6 v 8)” value in test [1] is reported as “IV (IV: >100-1000)”.

Take `O=C(NO)c1ccc2c(c1)C[C@H]1COCCN1C2` [Compound 132]: in test [1], the IC50 was in the range of 0.001 to 0.1 µM and the “Selectivity (6 v 8)” value was “IV (IV: >100-1000)”. The IC50 in test [2] fell in the range of 1 to 10 µM.
